In US8906904B2, “Alkoxy pyrazoles as soluble guanylate cyclase activators” (Boehringer Ingelheim International GmbH, priority 2012, dated 2014):
≈ marks a conversion by molar mass, not a printed value.

Test: Assessment of solubility (McIlvaine buffers, 24 h shake, UPLC-UV)
Format: physicochemical
Details: kinetic from dmso stock
Summary of the method: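 Compounds from 10 mM DMSO stocks were shaken for 24 h at room temperature in McIlvaine buffers at pH 2.2, 4.5 and 6.8 (2.5% v/v DMSO final), then filtered. Filtrates were quantified by UPLC-UV at 254 nm against a 50:50 acetonitrile/water reference assumed fully dissolved, as a single determination.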

solubility at 24 h (pH 2.2, aqueous buffer) [µg/mL]	solubility at 24 h (pH 4.5, aqueous buffer) [µg/mL]	solubility at 24 h (pH 6.8, aqueous buffer) [µg/mL]	Compound
110 (≈ 189 µM)	87 (≈ 150 µM)	90 (≈ 155 µM)	COc1c(C(=O)O)cnn1-c1cccc(-c2cccc(C)c2OCc2ccc3c(c2)CCN(C2CC4CCC(C2)O4)C3)n1 (stereo not drawn) [Compound 87]
94 (≈ 165 µM)	75 (≈ 132 µM)	78 (≈ 137 µM)	CCOc1c(C(=O)O)cnn1-c1cccc(-c2cccc(C)c2OCc2ccc3c(c2)CCN(C2CCOC2C)C3)n1 (stereo not drawn) [Compound 71]
91 (≈ 155 µM)	68 (≈ 116 µM)	73 (≈ 124 µM)	CCOc1c(C(=O)O)cnn1-c1cccc(-c2cccc(C)c2OCc2ccc3c(c2)CCN(C2CCOCC2F)C3)n1 (stereo not drawn) [Compound 94]
98 (≈ 165 µM)	77 (≈ 130 µM)	81 (≈ 136 µM)	COc1c(C(=O)O)cnn1-c1cccc(-c2cccc(C(F)(F)F)c2OCc2ccc3c(c2)CN(C2CCOCC2)C3)n1 [Compound 93]
110 (≈ 177 µM)	86 (≈ 138 µM)	89 (≈ 143 µM)	COc1c(C(=O)O)cnn1-c1cccc(-c2cccc(C(F)(F)F)c2OCc2ccc3c(c2C)CCN(C2CCOCC2)C3)n1 [Compound 84]
86 (≈ 141 µM)	67 (≈ 110 µM)	71 (≈ 116 µM)	COc1c(C(=O)O)cnn1-c1cccc(-c2cccc(C)c2OCc2ccc3c(c2)CCN(C2CC(C)(C)OC(C)(C)C2)C3)n1 [Compound 73]
120 (≈ 202 µM)	93 (≈ 156 µM)	90 (≈ 151 µM)	COc1c(C(=O)O)cnn1-c1cccc(-c2cccc(C)c2OCc2ccc3c(c2)CCN(C2C4CCOC4C2(C)C)C3)n1 (stereo not drawn) [Compound 75]
96 (≈ 169 µM)	83 (≈ 146 µM)	87 (≈ 153 µM)	CCOc1c(C(=O)O)cnn1-c1cccc(-c2cccc(C)c2OCc2ccc3c(c2)CCN(C2CCOCC2)C3)n1 [Compound 77]
110 (≈ 181 µM)	88 (≈ 145 µM)	95 (≈ 156 µM)	COc1c(C(=O)O)cnn1-c1cccc(-c2cccc(C(F)(F)F)c2OCc2ccc3c(c2)CCN(C2CCOCC2)C3)n1 [Compound 83]
91 (≈ 156 µM)	77 (≈ 132 µM)	80 (≈ 137 µM)	CCOc1c(C(=O)O)cnn1-c1cccc(-c2cccc(C)c2OCc2ccc3c(c2)CCN(CC2CCOCC2)C3)n1 [Compound 69]
100 (≈ 168 µM)	87 (≈ 146 µM)	89 (≈ 149 µM)	CCOc1c(C(=O)O)cnn1-c1cccc(-c2cccc(C)c2OCc2ccc3c(c2)CCN(C2CCOC(CC)C2)C3)n1 (stereo not drawn) [Compound 79]
100 (≈ 172 µM)	81 (≈ 139 µM)	81 (≈ 139 µM)	COc1c(C(=O)O)cnn1-c1cccc(-c2cccc(C)c2OCc2ccc3c(c2)CCN([C@H]2CC[C@@H](OC)CC2)C3)n1 [Compound 91]
100 (≈ 172 µM)	81 (≈ 139 µM)	81 (≈ 139 µM)	COc1c(C(=O)O)cnn1-c1cccc(-c2cccc(C)c2OCc2ccc3c(c2)CCN([C@H]2CC[C@H](OC)CC2)C3)n1 [Compound 90]
120 (≈ 214 µM)	100 (≈ 178 µM)	97 (≈ 173 µM)	COc1c(C(=O)O)cnn1-c1cccc(-c2cccc(C)c2OCc2ccc3c(c2)CN(CC2CC(F)(F)C2)C3)n1 [Compound 82]
100 (≈ 172 µM)	86 (≈ 148 µM)	89 (≈ 153 µM)	CCOc1c(C(=O)O)cnn1-c1cccc(-c2cccc(C)c2OCc2ccc3c(c2)CCN(C2CCOC(C)C2)C3)n1 (stereo not drawn) [Compound 78]
110 (≈ 191 µM)	83 (≈ 144 µM)	95 (≈ 165 µM)	COc1c(C(=O)O)cnn1-c1cccc(-c2cccc(C)c2OCc2ccc3c(c2)CCN(CCS(C)(=O)=O)C3)n1 [Compound 74]
44 (≈ 78.5 µM)	46 (≈ 82.1 µM)	67 (≈ 120 µM)	COc1c(C(=O)O)cnn1-c1cccc(-c2cccc(C)c2OCc2ccc3c(c2)CCN(CC2CC2(F)F)C3)n1 (stereo not drawn) [Compound 72, 1-(6-{2-[2-(2,2-difluoro-cyclopropylmethyl)-1,2,3,4-tetrahydro-isoquinolin-6-ylmethoxy]-3-methyl-phenyl}-pyridin-2-yl)-5-methoxy-1H-pyrazole-4-carboxylic acid]

Second part, the molecule before the results:

Compound	solubility at 24 h (pH 2.2, aqueous buffer) [µg/mL]	solubility at 24 h (pH 4.5, aqueous buffer) [µg/mL]	solubility at 24 h (pH 6.8, aqueous buffer) [µg/mL]
COc1c(C(=O)O)cnn1-c1cccc(-c2cc(F)cc(F)c2OCc2ccc3c(c2)CCN(C2CCOCC2)C3)n1 [Compound 53]	84 (≈ 146 µM)	65 (≈ 113 µM)	70 (≈ 121 µM)
COc1c(C(=O)O)cnn1-c1cccc(-c2cccc(C)c2OCc2ccc3c(c2)CCN(C2CCC(F)(F)CC2)C3)n1 [Compound 5]	98 (≈ 166 µM)	76 (≈ 129 µM)	72 (≈ 122 µM)
COc1c(C(=O)O)cnn1-c1cccc(-c2cccc(C)c2OCc2ccc3c(c2)CCN(C2CCOC(C)(C)C2)C3)n1 (stereo not drawn) [Compound 61]	130 (≈ 223 µM)	110 (≈ 189 µM)	99 (≈ 170 µM)
Cc1cccc(-c2cccc(-n3ncc(C(=O)O)c3OC(C)C)n2)c1OCc1ccc2c(c1)CCN(C1CCOC1)C2 (stereo not drawn) [Compound 41]	96 (≈ 169 µM)	75 (≈ 132 µM)	80 (≈ 141 µM)
Cc1cccc(-c2cccc(-n3ncc(C(=O)O)c3OC(C)C)n2)c1OCc1ccc2c(c1)CCN(C1CCCOC1)C2 (stereo not drawn) [Compound 42]	93 (≈ 160 µM)	75 (≈ 129 µM)	78 (≈ 134 µM)
CCOc1c(C(=O)O)cnn1-c1cccc(-c2cccc(Cl)c2OCc2ccc3c(c2)CCN(C2CCOCC2)C3)n1 [Compound 54]	100 (≈ 170 µM)	78 (≈ 132 µM)	75 (≈ 127 µM)
COc1c(C(=O)O)cnn1-c1cccc(-c2cccc(F)c2OCc2ccc3c(c2)CCN(C2CCOCC2)C3)n1 [Compound 63]	110 (≈ 197 µM)	90 (≈ 161 µM)	92 (≈ 165 µM)
CCOc1c(C(=O)O)cnn1-c1cccc(-c2cccc(C)c2OCc2ccc3c(c2)CCN(CC2(C)COC2)C3)n1 [Compound 34]	82 (≈ 144 µM)	65 (≈ 114 µM)	68 (≈ 120 µM)
CCOc1c(C(=O)O)cnn1-c1cccc(-c2cccc(C)c2OCc2ccc3c(c2)CCN(C(C)CF)C3)n1 (stereo not drawn) [Compound 49, 5-ethoxy-1-(6-{2-[2-(2-fluoro-1-methyl-ethyl)-1,2,3,4-tetrahydro-isoquinolin-6-ylmethoxy]-3-methyl-phenyl}-pyridin-2-yl)-1H-pyrazole-4-carboxylic acid]	92 (≈ 169 µM)	69 (≈ 127 µM)	58 (≈ 106 µM)
CCOc1c(C(=O)O)cnn1-c1cccc(-c2cccc(Cl)c2OCc2ccc3c(c2)CCN(C2CCOC2)C3)n1 (stereo not drawn) [Compound 55]	98 (≈ 170 µM)	48 (≈ 83.5 µM)	49 (≈ 85.2 µM)
CCOc1c(C(=O)O)cnn1-c1cccc(-c2cccc(C)c2OCc2ccc3c(c2)CCN(C2CC(C)OC(C)C2)C3)n1 (stereo not drawn) [Compound 65]	110 (≈ 184 µM)	84 (≈ 141 µM)	74 (≈ 124 µM)
Cc1cccc(-c2cccc(-n3ncc(C(=O)O)c3OC(C)C)n2)c1OCc1ccc2c(c1)CCN(C1COC1)C2 [Compound 39]	93 (≈ 168 µM)	44 (≈ 79.3 µM)	81 (≈ 146 µM)
CCOc1c(C(=O)O)cnn1-c1cccc(-c2cccc(Cl)c2OCc2ccc3c(c2)CCN(C2COC2)C3)n1 [Compound 51]	110 (≈ 196 µM)	83 (≈ 148 µM)	93 (≈ 166 µM)
CCOc1c(C(=O)O)cnn1-c1cccc(-c2cccc(C)c2OCc2ccc3c(c2)CCN(C2CCCOC2)C3)n1 (stereo not drawn) [Compound 36]	91 (≈ 160 µM)	72 (≈ 127 µM)	74 (≈ 130 µM)
COc1c(C(=O)O)cnn1-c1cccc(-c2cccc(C)c2OCc2ccc3c(c2)CCN(C2CCOCC2)C3)n1 [Compound 3]	96 (≈ 173 µM)	79 (≈ 142 µM)	81 (≈ 146 µM)
COc1c(C(=O)O)cnn1-c1cccc(-c2cc(F)cc(F)c2OCc2ccc3c(c2)CCN(C2COC2)C3)n1 [Compound 52]	83 (≈ 151 µM)	58 (≈ 106 µM)	73 (≈ 133 µM)
CCOc1c(C(=O)O)cnn1-c1cccc(-c2cccc(Cl)c2OCc2ccc3c(c2)CCNC3)n1 [Compound 50]	120 (≈ 238 µM)	79 (≈ 156 µM)	75 (≈ 149 µM)
CCOc1c(C(=O)O)cnn1-c1cccc(-c2cccc(C)c2OCc2ccc3c(c2)CCN(CC2CCOC2)C3)n1 (stereo not drawn) [Compound 68]	85 (≈ 149 µM)	71 (≈ 125 µM)	74 (≈ 130 µM)
COc1c(C(=O)O)cnn1-c1cccc(-c2cccc(C)c2OCc2ccc3c(c2)CCN(C2CC(C)OC(C)C2)C3)n1 (stereo not drawn) [Compound 62]	110 (≈ 189 µM)	88 (≈ 151 µM)	91 (≈ 156 µM)
COCC(C)N1CCc2c(ccc(COc3c(C)cccc3-c3cccc(-n4ncc(C(=O)O)c4OC(C)C)n3)c2C)C1 (stereo not drawn) [Compound 44]	100 (≈ 171 µM)	85 (≈ 145 µM)	88 (≈ 151 µM)
CCOc1c(C(=O)O)cnn1-c1cccc(-c2cccc(C)c2OCc2ccc3c(c2)CCN(C2CCOCC2C)C3)n1 (stereo not drawn) [Compound 64]	100 (≈ 172 µM)	66 (≈ 113 µM)	66 (≈ 113 µM)
CCOc1c(C(=O)O)cnn1-c1cccc(-c2cccc(Cl)c2OCc2ccc3c(c2)CCN(C2CCC(F)(F)CC2)C3)n1 [Compound 57]	95 (≈ 152 µM)	47 (≈ 75.4 µM)	51 (≈ 81.8 µM)
CCOc1c(C(=O)O)cnn1-c1cccc(-c2cccc(C)c2OCc2ccc3c(c2)CCN(C(C)C)C3)n1 [Compound 32]	91 (≈ 173 µM)	73 (≈ 139 µM)	78 (≈ 148 µM)
Cc1cccc(-c2cccc(-n3ncc(C(=O)O)c3OC(C)C)n2)c1OCc1ccc2c(c1)CCN(C(C)C)C2 [Compound 37]	92 (≈ 170 µM)	74 (≈ 137 µM)	78 (≈ 144 µM)
CCOc1c(C(=O)O)cnn1-c1cccc(-c2cccc(C)c2OCc2ccc3c(c2)CCN(C2COC2)C3)n1 [Compound 6]	90 (≈ 166 µM)	64 (≈ 118 µM)	81 (≈ 150 µM)
COCC(C)N1CCc2cc(COc3c(C)cccc3-c3cccc(-n4ncc(C(=O)O)c4OC(C)C)n3)ccc2C1 (stereo not drawn) [Compound 38]	110 (≈ 193 µM)	94 (≈ 165 µM)	88 (≈ 154 µM)
